Patent US20260000670A1 (priority 2022, published 2026)

What was measured:
mice [1] = assay: anti-AAV8 IgM and IgG titers, 1-week vs 2-week dasatinib treatment in mice; format: in vivo
Method: (§1) FIG. 7: In vivo study to assess the impact of prolonging the dasatinib treatment. All mouse groups, except Group 1, were immunized on day 1 with an i.v. injection of AAV8-hSeap (1e12 vg/kg). Four groups received an i.v. injection of AAV8-FactorIX (3e13 vg/kg) on day 43. Concomitantly to the first AAV administration, Groups 3 and 4 were treated with dasatinib for either 1 or 2 weeks, respectively. Dasatinib was administered at the dose of 50 mg/kg per oral gavage, twice per day and starting 1 hr before the first AAV treatment.
(§2) FIGS. 8A-8B: Prolongation of dasatinib treatment from 1 week to 2 weeks improves the inhibition of IgM formation to AAV8. In the experiment described in FIG. 8A and FIG. 8B anti-AAV8 IgM titers (median+/−SD) were measured in each mouse group from day 0 (before AAV8-hSeap administration) to day 64, as described for FIGS. 2A-2C. Each circle represents an individual IgM titer.
as §2, with “9A-9B:” for “8A-8B:”, “IgG” for “IgM”, “9A” for “8A”, “9B,” for “8B”, “3A-3C.” for “2A-2C.”
In the experiment described in Example 1, despite the strong inhibition of anti-AAV antibody formation observed in most of the mice, 4 out of 10 dasatinib-treated animals started to develop anti-AAV8 IgG before re-dosing (FIG. 3C, days 15-21). The presence of residual AAV8 particles in the circulation and in the tissues after the cessation of the dasatinib treatment might lead to this antibody formation. […] To this purpose, the same protocol was applied as in Example 1, but using either a 1-week or a 2-week dasatinib treatment. In addition, re-dosing was performed at a later time point (day 43 instead of day 22) to be able to observe potential antibody formation after the cessation of dasatinib treatment. This protocol is depicted in FIG. 7.
Circulating IgM and IgG directed against the AAV8 capsid were titrated in the serum samples (FIGS. 8A-8B and 9A-9B). The peaks of anti-AAV8 IgM were observed one week after first rAAV8 dosing, on day 8 for the immunized control Group 2 and on day 50 for the non-immunized control Group 1 (10/10 mice above the threshold) (FIGS. 8A-8B). […] Inhibition of IgM production was stronger in Group 4, treated with dasatinib for 2 weeks.

human whole blood = assay: AAV8-dependent cytokine release in human whole blood from four healthy donors with IVIG; format: cell-based
Method: FIGS. 6A-6C: Dasatinib inhibits AA V8-dependent cytokine release in human whole blood. Fresh whole blood from 4 healthy donors was incubated with either PBS or AAV8-hSEAP (5e11 vg/mL) with IVIG (PRIVIGEN, 1/100) for 24 hrs. Dasatinib was added at the concentration of 50 nM 1 hr before addition of AAV8. In some of the culture wells, a second dose of dasatinib was added 9 hrs after AAV8 treatment (dasa 50 nM 2x). After 24 hrs, the plasma was collected and cytokines measured using Quanterix kits. Depicted are the cytokine fold increases over PBS for IFN-γ and TNF-α (FIG. 6A), IL-6 and IL-1x (FIG. 6B), and IL-2 and IL-1β (FIG. 6C), with the percentages of inhibition in the presence of dasatinib (means +/−SEM).
To study in more detail the effects of dasatinib on AAV-dependent cytokine release, another whole blood assay was performed. Whole blood from four healthy donors was incubated with AAV8-hSEAP (5e11 vg/ml) for 24 hrs. Intravenous Immunoglobulin (IVIG, Privigen) which contains anti-AAV antibodies was added to the blood samples. Dasatinib was added at 50 nM 1 hr before the AAV treatment, PBS was used as a negative control. As the half-life of dasatinib is very short (Lindauer M et al, Recent Results Cancer Res. 2010;184:83-102), a second dasatinib addition was performed 9 hrs after the AAV treatment. After 24 hrs, plasma supernatants were collected and cytokines measured using Quanterix kits. […] Inhibition of AAV-mediated cytokine release likely contributes to the effect of dasatinib on antibody formation.

mice [2] = assay: hFIX transgene expression after re-dosing, 1-week vs 2-week dasatinib treatment; format: in vivo
Method: as §1
FIG. 10: Prolongation of dasatinib treatment upon first AAV8 dosing improves transgene expression after readministration. In the experiment described in FIG. 10, the levels of hFIX expression (ng/mL, median+/−SD) were measured for each group, starting on day 42 (one day before administration of AAV8-hFIX) and up to day 64.
In the experiment described in Example 1, despite the strong inhibition of anti-AAV antibody formation observed in most of the mice, 4 out of 10 dasatinib-treated animals started to develop anti-AAV8 IgG before re-dosing (FIG. 3C, days 15-21). […]
The inhibition of antibody formation to AAV8 correlated with the improvement of hFIX transgene expression after re-dosing, showing efficient transduction by the second AAV8(FIG. 10). Expression of hFIX was inversely correlated with the IgG and IgM titers measured on day 42 before re-dosing.

[3] = Group 4, dasatinib for 2 weeks, day 42
[4] = dasatinib 50 nM, 24 hrs, AAV8-hSEAP 5e11 vg/ml with IVIG

## Cc1nc(Nc2ncc(C(=O)Nc3c(C)cccc3Cl)s2)cc(N2CCN(CCO)CC2)n1 [dasatinib, N-(2-chloro-6-methylphenyl)-2-[[6-[4-(2-hydroxyethyl)-1-piperazinyl]-2-methyl-4-pyrimidinyl]amino]-5-thiazole carboxamide monohydrate]
Mice [1]; Group 3, dasatinib 50 mg/kg oral twice per day for 1 week
  anti-AAV8 IgM titers until administration of the second rAAV8: remained low to negative
Mice [1]; Group 3, dasatinib for 1 week, day 42
  mice with negative anti-AAV8 IgG titers: 3/15
Mice [1]; Group 3, dasatinib for 1 week, day 42 before AAV8 re-dosing
  mice with positive IgM titers to AAV8: Four out of 15
Mice [1]; Group 4, dasatinib for 2 weeks
  inhibition of IgM production compared with 1-week treatment: stronger
Mice [1]; [3]
  mice with IgG titers below the positivity threshold: 5/15
  mice with positive IgM titer: one
Mice [1]; Group 4, dasatinib for 2 weeks, day 42, compared with 1-week Group 3
  median anti-AAV8 IgG titer: much lower than in Group 3
Mice [1]; day 64, 3 weeks after rAAV8 re-administration
  anti-AAV8 IgG titers after rAAV8 re-administration: comparable in all mouse groups
Human whole blood; dasatinib 50 nM added both 1 hr before and 9 hrs after AAV treatment
  inhibition of cytokine production with second dasatinib addition versus single addition: more pronounced
Human whole blood; [4]
  production of IFN-Y: inhibited
  production of IL-1β: inhibited
  production of IL-2: inhibited
  production of IL-6: inhibited
  production of IL-la: inhibited
  production of TNF-α: inhibited
Mice [2]; Group 4 (2 weeks) vs Group 3 (1 week), after AAV8-FactorIX 3e13 vg/kg on day 43
  expression of hFIX, 2-week treatment compared with 1-week treatment: higher
Mice [2]; day 64, dasatinib-treated mice
  hFIX levels in mice that remained IgG-negative on day 42: in the range of those measured in the non-immunized control Group 1
